Laboratory results from patent publication US5212072A, “Polypeptides complementary to peptides or proteins having an amino acid sequence or nucleotide coding sequence at least partially known and methods of design therefor” (Board of Regents, The University of Texas System, priority 1991, dated 1993).
Where no end group is shown, it is not given here.

How the values were obtained:
bovine gamma-endorphin = biological target: T1, bovine gamma-endorphin (Bos taurus, UniProt P01190); assay: ELISA binding of gamma-endorphin to coated wells; conditions: gamma-odne 40 ug/well vs insulin or BSA; absorbance 405 nm; FIG. 7
T1 construct: purchased Boehringer Mannheim (Indianapolis, Ind.); host or cells: chemical synthesis
Procedure: Synthetic bovine gamma-endorphin was obtained from Boehringer Mannheim (Indianapolis, Ind.) and rabbit antibody for synthetic gamma-endo was obtained from Accurate Biochemicals (Westbury, N.Y.).
The wells of a 96-well round-bottomed microtiter plate were coated (by the procedure described in Example 1B) with gamma-odne (40 ug/well), insulin (20U/well) or bovine serum albumin (BSA,200 ug/well . Varying concentrations of gamma-endorphin (as shown on the abscissa in FIG. 7) were incubated in the coated wells for 1 hr, after which the plates were thrice washed with PBS-Tween buffer. The wells were then treated with rabbit antibody for gamma-endorphin, washed, and then treated with goat antibody against rabbit immunoglobulin the goat antibody being conjugated to alkaline phosphatase. After washing away unbound goat antibody conjugate, the bound alkaline phosphatase activity was measured with p-nitrophenylphosphate as earlier described. The results of the above manipulations are shown in FIG. 7 where the extent of absorbance at 405 nm reflects the degree of gamma-endorphin binding to wells coated with gamma-odne, insulin or BSA. […] The shaded area in FIG. 7 represents the extent of gamma-endorphin binding in the presence of soluble excess of gamma-odne. Thus it is shown that a second pair of complementary peptides interacts in a manner showing affinity and apparent congruence.

[1] = system: opiate receptors on NG108-15 cells; assay: Inhibition of 125I-beta-endorphin binding to NG108-15 cells; conditions: 125I-beta-endorphin 10^-11 M
From the text: NG108-15 cells are known to contain receptors for beta-endorphin called opiate receptors. In addition to beta-endorphin, gamma-endorphin and several analogs of beta-endorphin bind to these opiate receptors. The peptide, gamma-ODNE, complementary to gamma-endorphin described in Example II was examined for its ability to inhibit the binding of ^125 I-beta-endorphin to opiate receptors on NG108-15 cells. Gamma-endorphin is a fragment of the larger peptide beta-endorphin.
Seventy percent of the total binding was specific by conventional criteria.
For this experiment, ^1251 -beta-endorphin was preincubated 30 minutes with various amounts of the complementary peptide, gamma-ODNE, before a 30 minute (37° C.) incubation with NG108-15 cells in microtiter wells. After the incubation, cells were washed 3 times and cell associated radioactivity wad determined with a Packard Multi-Prias gamma counter.

female ICR mice = assay: Induction of catatonia in mice by i.c. injection of serum; format: in vivo; conditions: simultaneous i.c. injection 0.2 mg
From the text: It is well known that large doses of opiate-like substances can induce a catatonic state in animals which is inhibited or reversed by treatment with the opiate antagonist naloxone. In analogy with the results in earlier examples, the ability of a peptide (qamma-ODNE) complementary to an opiate peptide, qamma-endorphin, to induce antibodies that have opiate properties was examined.
Gamma-ODNE (Example II) was conjugated to Keyhole Limpet Hemocyanin ([…]) and used with Freund's adjuvant to generate rabbit antibodies in a conventional manner (see Example 1F). Both normal and induced rabbit sera were injected intracerebroventicularly (i.c.) into female ICR mice.

HTCA = assay: Solid phase radiobinding assay for serum ACTH on HTCA-coated wells; format: binding; conditions: for Log10 Dilution at 50% inhibition: graphic interpolation
Procedure: Complementary peptide (HTCA) was dissolved in phosphate buffered saline (PBS) at 1 mg/ml and 200 ul aliquots were placed in wells of a 96 well polyvinyl assay plate (Microtest III, Falcon Cat. #3911). HTCA was allowed to coat the wells overnight at 4° C. The coating solution was removed and the wells were washed three times with PBS. Radiolabeled ACTH (^125 I-ACTH, New England Nuclear NEX-65) was diluted into PBS containing 0.0005% TWEEN-20 so as to deliver 50 pg (or about 30,000 cpm) in a 20 ul volume.
Serum samples were prepared in a 96 well tissue culture plate by serial dilution of serum into PBS/TWEEN 20 to give a final volume of 180 ul/well. The serum samples were then transferred to the HTCA coated a ssay plate and allowed to incubate. Finally, 20 ul of ^125 I-ACTH solution was added, incubated, and the total sample of 200 ul was removed. After washing three times with PBS, the wells were cut from the plate and counted in a gamma counter.
Serum samples used in this study contained either 50 pg/ml or 500 pg/ml of ACTH added to fetal calf serum (FCS).

[2] = system: mouse adrenal tumor (Y-1) cells; assay: Binding of anti-HTCA to affixed mouse adrenal tumor (Y-1) cells; conditions: absorbency at 405 nM; FIG. 5
Procedure: Mouse adrenal tumor (Y-1) cells were affixed by glutaraldehyde in flat bottom wells of a microtiter plate. The affixed cells were then treated with rabbit anti-KLH or rabbit anti-HTCA alone or in the presence of several levels of ACTH. After washing, the microtiter wells were treated with goat antibody to rabbit immunoglobulin the goat antibody being coupled to the enzyme alkaline phosphatase. After washing away unbound antibody-phosphatase complex, p-nitrophenyl phosphate was added and the enzyme dependent development of absorbency at 405 nM was monitored. […] ACTH and anti-HTCA appeared competitive for the same binding site on the mouse adrenal tumor (Y-1) cells. Rabbit anti KLH had no effect (shaded region)

[3] = biological target: T2, mouse adrenal tumor cell ACTH receptor (Mus musculus, UniProt Q64326); assay: Glucocorticoid hormone production by mouse adrenal tumor (Y-1) cells; format: cell-based; conditions: ACTH 10 microunits/well, 18 hrs
T2 construct: Duplicate cultures of mouse adrenal tumor (Y-1) cells in microtiter plates; endogenous in cells; host or cells: mouse adrenal tumor (Y-1) cells
Procedure: An induction of glucocorticoid hormone production by ACTH and anti-HTCA was found with cultured mammalian cells. Duplicate cultures of mouse adrenal tumor (Y-1) cells in microtiter plates were treated with culture media, ACTH (10 microunits/well) or various dilutions of the anti-HTCA.
^a Duplicate cultures of mouse adrenal (Y1) cells in microtiter plate
were treated with culture media, ACTH (10 microunits/well) or the
indicated dilutions of antibody to HTCA. After 18 hrs incubation at
37° in 4% CO2, replicate cultures were pooled and assayed for
glucocorticoid hormone production by a radioimmunoassay (RIA) for […]

HTCA, sequence (as listed by the source): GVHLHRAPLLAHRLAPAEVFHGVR
T2 sequence (Q64326 whole entry): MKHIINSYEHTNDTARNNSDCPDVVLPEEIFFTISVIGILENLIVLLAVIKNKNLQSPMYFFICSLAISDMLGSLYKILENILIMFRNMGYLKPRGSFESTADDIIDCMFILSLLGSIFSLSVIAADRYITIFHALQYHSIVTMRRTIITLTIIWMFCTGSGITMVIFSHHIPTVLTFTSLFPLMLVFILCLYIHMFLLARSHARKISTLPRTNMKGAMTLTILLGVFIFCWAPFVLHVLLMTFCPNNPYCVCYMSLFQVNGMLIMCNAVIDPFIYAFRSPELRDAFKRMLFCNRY
T2 sequence (Q9D159 whole entry partner): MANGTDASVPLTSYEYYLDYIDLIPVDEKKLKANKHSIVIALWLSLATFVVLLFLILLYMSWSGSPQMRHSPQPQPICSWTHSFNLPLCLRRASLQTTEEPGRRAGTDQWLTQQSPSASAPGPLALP

QRDKGRLALLGGHEPAV [gamma-odne, H2 N--gln--arg--asp--lys--gly--arg--leu--ala--leu--leu--gly--gly--his--glu--pro--ala--val--COOH]
gamma-endorphin binding to coated wells (in words) (bovine gamma-endorphin): significantly bound | % Inhibition of Specific 125I-beta-endorphin ([1]; 10^-4 M): 75.0 ± 0.6% | % Inhibition of Specific 125I-beta-endorphin ([1]; 10^-5 M): 36.0 ± 2.1% | % Inhibition of Specific 125I-beta-endorphin ([1]; 10^-6 M, 30 min preincubation): 24.7 ± 3.9%

C=CCN1CC[C@]23c4c5ccc(O)c4O[C@H]2C(=O)CC[C@@]3(O)[C@H]1C5 [naloxone]
effect on serum-induced catatonia (female ICR mice): reversed

ACTH: Synthetic ACTH, fragment 1-24, from Organon; unlabelled ACTH competitor in binding assays
% Inhibition of Specific Binding (HTCA; 50 pg/ml ACTH in FCS, Log10 Dilution -0.5): 73% | % Inhibition of Specific Binding (HTCA; 50 pg/ml ACTH in FCS, Log10 Dilution -1.0): 40% | % Inhibition of Specific Binding (HTCA; 50 pg/ml ACTH in FCS, Log10 Dilution -1.5): 44% | % Inhibition of Specific Binding (HTCA; 50 pg/ml ACTH in FCS, Log10 Dilution -2.0): 9% | % Inhibition of Specific Binding (HTCA; 50 pg/ml ACTH in FCS, Log10 Dilution -2.5): 1% | % Inhibition of Specific Binding (HTCA; 50 pg/ml ACTH in FCS, Log10 Dilution -3.0): 0% | % Inhibition of Specific Binding (HTCA; 50 pg/ml ACTH in FCS, Log10 Dilution -3.5): 0% | Log10 Dilution at 50% inhibition (HTCA; 50 pg/ml serum sample): -1.1 | % Inhibition of Specific Binding (HTCA; 500 pg/ml ACTH in FCS, Log10 Dilution -0.5): 90% | % Inhibition of Specific Binding (HTCA; 500 pg/ml ACTH in FCS, Log10 Dilution -1.0): 77% | % Inhibition of Specific Binding (HTCA; 500 pg/ml ACTH in FCS, Log10 Dilution -1.5): 57% | % Inhibition of Specific Binding (HTCA; 500 pg/ml ACTH in FCS, Log10 Dilution -2.0): 53% | % Inhibition of Specific Binding (HTCA; 500 pg/ml ACTH in FCS, Log10 Dilution -2.5): 35% | % Inhibition of Specific Binding (HTCA; 500 pg/ml ACTH in FCS, Log10 Dilution -3.0): 32% | % Inhibition of Specific Binding (HTCA; 500 pg/ml ACTH in FCS, Log10 Dilution -3.5): 20% | Log10 Dilution at 50% inhibition (HTCA; 500 pg/ml serum sample): -2.0 | effect on binding of anti-HTCA to affixed Y-1 cells [2]: blocked binding of the anti-HTCA in a dose dependent manner | Corticosterone equivalents, Experiment 1 [3]: 1.08 µg/mL | Corticosterone equivalents, Experiment 2 [3]: 1.42 µg/mL
